Results taken from US4777269A, “7-Phenylacetic acid-4-alkyl-coumarinyl amides useful in fluorometric determination of the activity of hydrolases” (European Atomic Energy Community, priority 1986, dated 1988).
Converted amounts (≈) assume the structure as drawn. Read-outs that look alike come from different tables or passages of the source.

Key:
[1] = Solubility of the substrates in aqueous solution / buffer; type: physicochemical
Method: The values for the PFC test are easily reproduceable since the solution of the substrate (5% ethanol) can be prepared more accurately. For the preparation of solutions of the substrate without ethanol about 24 hours are need to dissolve 1 mg of the substrate in 1 l of the buffer. The fluorometric test is particularly suited for the determination of low activities of penicillin G-acylase.
The yields obtained in the preparation of the 7-phenylacetic acid-4-alkyl-coumarinyl amides of the invention, in particular of PFC and PMC, were in the range of from 50 to 80% at a high product purity (NMR, IR). […] However, this problem may be overcome by dissolving the substrate at first in pure ethanol and then diluting it with the corresponding buffer to a mixture with 5% ethanol. In this manner concentrations of 6 mg/l can be achieved.

[2] = target: penicillin G-acylase (Escherichia coli, UniProt P06875); test: Kinetic study of enzymatic cleavage of the coumarinyl amides (Lineweafer-Burg-plot), fluorometric test; type: biochemical; settings: enzyme concentration constant, substrate concentration varied, 50 mM K-P-buffer, 5% ethanol
Method: During the tests it has been observed repeatedly that the conversion rate of the reaction decreases at higher substrate concentrations. Therefore, research work for the determination of the kinetic parameters (Vmax and KM) of this reaction system had to be carried out.
The enzyme concentration in the test was kept constant and the substrate concentration (50 mM K-P-buffer 5% ethanol for both substrates) was varied.
The test mixture contains 3 μg/ml of the coumarinyl derivative as obtained in example 1, dissolved in 50 mM of a potassium-phosphate-buffer (pH 8, 5% ethanol).
At first a solution of the coumarinyl derivative in ethanol is prepared and diluted with the phosphate buffer according to the concentration values. 3 ml of the mixture are measured in a fluorescence cuvette in a spectral fluorometer (λ=440 nm for PMC; λ=495 nm for PFC) in regard to the background signal.
The reaction is started (while stirring) by the addition of 10 to 100 μl of the sample and followed. The activity of the enzyme can be estimated from the linear initial increase of the fluorescence/time-diagram after a corresponding calibration has been made.

[3] = aqueous solution, aqueous solutions, without ethanol, read-out: solubility in aqueous solutions
[4] = buffer with 5% ethanol, organic solvent or mixture, buffer mixture with 5% ethanol, read-out: achievable concentration after dissolving in pure ethanol and diluting with buffer

Chain of penicillin G-acylase (P06875 290-846): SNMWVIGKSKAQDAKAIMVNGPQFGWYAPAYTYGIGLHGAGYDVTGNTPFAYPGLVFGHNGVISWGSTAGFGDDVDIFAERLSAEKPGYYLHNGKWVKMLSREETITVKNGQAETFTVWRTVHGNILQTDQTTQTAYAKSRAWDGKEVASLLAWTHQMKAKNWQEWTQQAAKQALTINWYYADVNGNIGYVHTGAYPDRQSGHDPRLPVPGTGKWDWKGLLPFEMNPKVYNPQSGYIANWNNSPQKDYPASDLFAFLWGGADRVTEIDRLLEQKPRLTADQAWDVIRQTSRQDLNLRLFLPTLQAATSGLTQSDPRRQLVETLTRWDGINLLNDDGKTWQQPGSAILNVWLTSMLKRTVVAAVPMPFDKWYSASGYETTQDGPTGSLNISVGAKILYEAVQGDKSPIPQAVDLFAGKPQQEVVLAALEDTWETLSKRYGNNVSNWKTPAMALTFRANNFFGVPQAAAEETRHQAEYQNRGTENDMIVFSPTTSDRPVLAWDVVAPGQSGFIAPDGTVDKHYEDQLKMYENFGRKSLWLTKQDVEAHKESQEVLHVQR
Chain of penicillin G-acylase (P06875 27-235): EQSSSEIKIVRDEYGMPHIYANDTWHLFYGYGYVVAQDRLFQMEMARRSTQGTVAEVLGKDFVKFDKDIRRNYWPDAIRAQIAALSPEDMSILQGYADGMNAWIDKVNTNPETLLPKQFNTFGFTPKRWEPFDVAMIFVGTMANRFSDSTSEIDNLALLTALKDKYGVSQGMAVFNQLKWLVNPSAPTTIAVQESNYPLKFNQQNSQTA

Row | Structure (SMILES) | solubility [1, 3] [µg/mL] | solubility [1, 4] [µg/mL] | kinetic behaviour at higher substrate concentrations [2]
1 | O=C(Cc1ccccc1)Nc1ccc2c(C(F)(F)F)cc(=O)oc2c1 [PFC, 7-phenyl-acetic acid-4-trifluoromethyl-coumarinyl amide] | < 1 | 6 (≈ 17.3 µM) | substrate inhibition
2 | Cc1cc(=O)oc2cc(NC(=O)Cc3ccccc3)ccc12 [PMC, 7-phenylacetic acid-4-methylcoumarinyl amide] | < 1 | 6 (≈ 20.5 µM) | substrate inhibition
